From US20250250582A1, “Plant Cells and Plants Modified to Increase Herbicide Resistance and Stress Tolerance and Methods of Using the Same” (The Board of Trustees of the University of Arkansas, priority 2018, published 2025)
“And” between values parts separate entries of the source, which are not always exact repeats. Equal entries are not always repeated.

Legend:
[1] = test system: multiple-resistant E. colona (ECO-R); test: RNA-sequencing differential gene expression, herbicide-treated vs nontreated ECO-R; details: 24 h
Excerpt: Pure-line generated seed of each accession were germinated in pots containing potting soil within a temperature/light controlled growth chamber set to a 14-hr day length, 33 C day temperature, and 24 C night time to simulate environmental conditions early in the rice growing season. A single plant was maintained in each of the pots and used for the treatments; two pots were used as individual biological replicates. […] Pots for each of the respective treatments were labeled as either ECO-R/S-T for the treated samples and ECO-R/S-N for the non-treated counterpart. To minimize the effect that the sprayer may play in the application, both plants of the ECO-R and ECO-S were treated at the same time. After approximately 30 minutes, allowing for the plants to dry, the treated and non-treated plants of both accessions were moved back into the growth chamber. Precisely 24-hours after application, the aboveground portion of each of the plants were removed and immediately frozen in liquid nitrogen to cease all biological function. Samples were then transferred to RNAlater™-ICE (Invitrogen, Carlsbad CA, USA) for shipment to the Clemson University Genomics Institute (CUGI), in Clemson, South Carolina.
RNA was extracted from the young leaf tissues of both replications for the ECO-R and ECO-S, T and N samples, at Clemson University. Total RNA was extracted with a kit according to the manufactures instructions. The extracted RNA was treated with DNase (Invitrogen, Calsbad, CA, USA) to remove any DNA contamination prior to further processing. The samples were prepared for sequencing by CUGI. For library preparation, the TruSeq Stranded Total RNA kit (Illumina Inc., San Diego, CA, USA) was used according to the instructions provided by the manufacturer to produce a paired-end library for sequencing. Ribosomal RNA was removed using target-specific oligonucleotides paired with rRNA removal beads, removing all cytoplasmic and mitochondrial rRNA that may result in poor quality results. RNA was fragmented and reverse transcribed to cDNA using random primers, followed by a second strand cDNA synthesis. Each fragment is then ligated with an additional ‘A’ and an adapter for sequencing. The PCR enriched product is then used to create the final cDNA library. All samples were sequenced on an Illumina Hiseq 2500 platform housed in the Holdings Cancer Center at the Medical University of South Carolina, Charleston, SC, USA. Samples, regardless of treatments or replication were ran across three lanes to reduce sequencing errors from the equipment. The resulting data were processed by CUGI.
A de novo transcriptome was assembled from the treatments described for this experiment as well as several treatments, which included herbicides profiled in ECO-R. The treatments were applied to both ECO-R and ECO-S samples with two replications as described previously. In total, 20 individual plants, from both the ECO-R and ECO-S accessions, as well as T and NT samples, were used for the assembly. The transcriptome was assembled using the Trinity RNA-Seq pipeline (Broad Institute, Cambridge, MA, USA). Raw data were assessed for quality using FastQC (Babraham Institute, Cambridge, UK) and then processed to remove adapter sequences and low quality bases using a sliding window method. The processed data were then rerun using FastQC to ensure high quality reads. Using the TrinityRNASeq 2.2.0 software, the samples were normalized, by replication, using a coverage size of 100 and kmer of 32. The normalized reads were then assembled as transcripts and genes using Trinity with the stranded library set as the default.

[2] = test system: multiple-resistant E. colona (ECO-R); test: Herbicide resistance profile of ECO-R; format: in vivo, Echinochloa colona; details: data not shown
Excerpt: (§1) Beginning in 2010, through the 2016 cropping cycle, Echinochloa spp. from throughout the rice producing counties of Arkansas, USA, located along the Mississippi River were sampled for a survey of the current status of herbicide resistance. Seeds were bulk sampled from plants that had matured in rice and soybean production fields, which had survived at least one herbicide application, were collected and sent to the University of Arkansas Altheimer Laboratory in Fayetteville for characterization and evaluation of herbicide resistance to common rice herbicides. […] From this screening program, two populations of E. colona were selected for use in this experiment. […] To establish inbred and homozygous accessions for the experiment, a single plant, verified as resistant/susceptible of ECO-R and ECO-S were grown in isolation to produce seed for further experiments.
Accession source and population profiling. From 2010 to 2016, the University of Arkansas weed physiology group has been collecting putative herbicide-resistant Echinochloa populations from rice production fields throughout the state of Arkansas. […] Collections took place in the late summer to early fall prior to rice harvest; these accessions were bulk sampled by in-field location and farm, with field histories collected when possible. All of the samples were submitted to the University of Arkansas Altheimer Laboratory for assessment of their resistance profile and characterized according to their species. […] Populations with unique profiles and of interest for further research were then grown in isolation to produce pureline seed. […] Another accession, E. colona susceptible (ECO-S), was also selected and grown in isolation. This accession was selected because of its similar cropping history and geographic location, as well as its high level of susceptibility to the herbicides of interest.

[3] = test system: susceptible E. colona (ECO-S); test: Herbicide resistance profile of ECO-S; format: in vivo, Echinochloa colona
Excerpt: as §1
Accession source and population profiling. From 2010 to 2016, the University of Arkansas weed physiology group has been collecting putative herbicide-resistant Echinochloa populations from rice production fields throughout the state of Arkansas. […] Collections took place in the late summer to early fall prior to rice harvest; these accessions were bulk sampled by in-field location and farm, with field histories collected when possible. […]

CCC(=O)Nc1ccc(Cl)c(Cl)c1 [propanil]
ABC transporter C family member 10 Fold Change ([1]; ECO-R-T vs ECO-R-N): 7.4 fold
ACC oxidase fold change ([1]; ECO-R-T vs ECO-R-N): −4.5 fold
ACCase 2 fold change ([1]; ECO-R-T vs ECO-R-N): −10.2 fold
ACCase fold change ([1]; ECO-R-T vs ECO-R-N): −9.7 fold
ADP sugar pyrophosphatase fold change ([1]; ECO-R-T vs ECO-R-N): −7.2 fold
Beta-glucosidase 22 fold change ([1]; ECO-R-T vs ECO-R-N): 3.6 fold
CYP72A11 Fold Change ([1]; ECO-R-T vs ECO-R-N): 3.1 fold
CYP72A13 Fold Change ([1]; ECO-R-T vs ECO-R-N): 3.8 fold
CYP72A15 Fold Change ([1]; ECO-R-T vs ECO-R-N): 2.6 fold and 3.4 fold and 2.9 fold
CYP89A2 Fold Change ([1]; ECO-R-T vs ECO-R-N): 2.5 fold and 3.8 fold and 3.6 fold
CYP709B1 Fold Change ([1]; ECO-R-T vs ECO-R-N): 7.0 fold
ERF7 fold change ([1]; ECO-R-T vs ECO-R-N): 6.7 fold
ERF060 fold change ([1]; ECO-R-T vs ECO-R-N): 2.1 fold
GST23 Fold Change ([1]; ECO-R-T vs ECO-R-N): 6.7 fold
GSTU17 fold change ([1]; ECO-R-T vs ECO-R-N): 7.9 fold
NADH-cytochrome b5 reductase proteins fold change ([1]; ECO-R-T vs ECO-R-N): < −7.4 fold
NADP-dependent malic enzyme fold change ([1]; ECO-R-T vs ECO-R-N): −9.3 fold
Stress enhanced protein 2 fold change ([1]; ECO-R-T vs ECO-R-N): 2.5 fold
UGT73C2 Fold Change ([1]; ECO-R-T vs ECO-R-N): 4.7 fold
UGT73D1 fold change ([1]; ECO-R-T vs ECO-R-N): 5.3 fold and 6.9 fold and 4.8 fold
UGT73E1 fold change ([1]; ECO-R-T vs ECO-R-N): 3.0 fold
UGT74G1 Fold Change ([1]; ECO-R-T vs ECO-R-N): 4.6 fold and 4.5 fold
UGT75D1 fold change ([1]; ECO-R-T vs ECO-R-N): 7.4 fold
UGT83A1 Fold Change ([1]; ECO-R-T vs ECO-R-N): 2.3 fold
acetyl-coenzyme A synthetase fold change ([1]; ECO-R-T vs ECO-R-N): −8.4 fold
disease resistance protein RPM1 fold change ([1]; ECO-R-T vs ECO-R-N): 7.1 fold
ferredoxin 6 fold change ([1]; ECO-R-T vs ECO-R-N): < −2.4 fold
fructose-1,6-bisphosphatase fold change ([1]; ECO-R-T vs ECO-R-N): −9.3 fold
glutamine synthetase fold change ([1]; ECO-R-T vs ECO-R-N): −10.5 fold
malate dehydrogenase fold change ([1]; ECO-R-T vs ECO-R-N): −10.8 fold
peroxidase 5 fold change ([1]; ECO-R-T vs ECO-R-N): −3.1 fold
phenolic glucoside malonyltransferase 1 fold change ([1]; ECO-R-T vs ECO-R-N): −3.5 fold
pyruvate dehydrogenase E1 subunit fold change ([1]; ECO-R-T vs ECO-R-N): < −10.4 fold
pyruvate phosphate dikinase fold change ([1]; ECO-R-T vs ECO-R-N): −12 fold
ubiquinol cytochrome-c reductase complex core protein fold change ([1]; ECO-R-T vs ECO-R-N): < −8.6 fold
ATP synthase subunit(s) fold change ([1]; ECO-R-T vs ECO-R-N, repressed): < −10 fold
TPS6 repression ([1]; ECO-R-T vs ECO-R-N, repressed): 6.1 fold
sugar transporter ERD6-like 8 repression ([1]; ECO-R-T vs ECO-R-N, repressed): 4.2 fold
sugar transporter SWEET2a repression ([1]; ECO-R-T vs ECO-R-N, repressed): 3.8 fold
heat shock proteins fold change ([1]; ECO-R-T vs ECO-R-N, repressed by as much as): ≤ −9.9 fold
CYP72A14 fold induction ([1]; Echinochloa colona, in vivo): ~3 fold
level of resistance [2]: > 8 × field dose
tolerance observed ([3]; ECO-S (Example 1)): approximately twice
tolerance observed ([3]; ECO-S (Example 2)): ~3 × field dose
